Data from patent US9604961B2, “Histone demethylase inhibitors” (Celgene Quanticel Research, Inc., priority 2012, dated 2017).

How the values were obtained:
Assay type in all cases: biochemical
Jarid1A = Jarid1A (Homo sapiens (Human), UniProt P29375); test: Jarid1A in vitro enzyme inhibition assay (TR-FRET)
Excerpt: The enzymatic assay of Jarid1A activity is based upon Time Resolved-Fluorescence Resonance Energy Transfer (TR-FRET) detection.

Jarid1B = Jarid1B (Homo sapiens (Human), UniProt Q9UGL1); test: Jarid1B in vitro enzyme inhibition assay (TR-FRET)
JMJD2C = JMJD2C (Homo sapiens (Human), UniProt Q9H3R0); test: JMJD2C in vitro enzyme inhibition assay (TR-FRET)
JMJD2C, sequence (Q9H3R0 2-372): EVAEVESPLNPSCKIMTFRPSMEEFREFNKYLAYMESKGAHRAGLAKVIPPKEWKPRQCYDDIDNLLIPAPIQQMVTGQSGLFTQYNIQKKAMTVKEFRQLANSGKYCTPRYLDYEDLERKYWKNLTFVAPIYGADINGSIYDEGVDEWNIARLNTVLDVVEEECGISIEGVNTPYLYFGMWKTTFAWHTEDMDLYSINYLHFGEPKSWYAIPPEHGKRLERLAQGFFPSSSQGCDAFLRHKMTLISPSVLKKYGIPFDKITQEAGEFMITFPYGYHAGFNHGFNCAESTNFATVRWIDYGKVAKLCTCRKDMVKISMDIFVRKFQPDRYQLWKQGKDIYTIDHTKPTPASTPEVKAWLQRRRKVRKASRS

Jarid1B, sequence (Q9UGL1 2-751): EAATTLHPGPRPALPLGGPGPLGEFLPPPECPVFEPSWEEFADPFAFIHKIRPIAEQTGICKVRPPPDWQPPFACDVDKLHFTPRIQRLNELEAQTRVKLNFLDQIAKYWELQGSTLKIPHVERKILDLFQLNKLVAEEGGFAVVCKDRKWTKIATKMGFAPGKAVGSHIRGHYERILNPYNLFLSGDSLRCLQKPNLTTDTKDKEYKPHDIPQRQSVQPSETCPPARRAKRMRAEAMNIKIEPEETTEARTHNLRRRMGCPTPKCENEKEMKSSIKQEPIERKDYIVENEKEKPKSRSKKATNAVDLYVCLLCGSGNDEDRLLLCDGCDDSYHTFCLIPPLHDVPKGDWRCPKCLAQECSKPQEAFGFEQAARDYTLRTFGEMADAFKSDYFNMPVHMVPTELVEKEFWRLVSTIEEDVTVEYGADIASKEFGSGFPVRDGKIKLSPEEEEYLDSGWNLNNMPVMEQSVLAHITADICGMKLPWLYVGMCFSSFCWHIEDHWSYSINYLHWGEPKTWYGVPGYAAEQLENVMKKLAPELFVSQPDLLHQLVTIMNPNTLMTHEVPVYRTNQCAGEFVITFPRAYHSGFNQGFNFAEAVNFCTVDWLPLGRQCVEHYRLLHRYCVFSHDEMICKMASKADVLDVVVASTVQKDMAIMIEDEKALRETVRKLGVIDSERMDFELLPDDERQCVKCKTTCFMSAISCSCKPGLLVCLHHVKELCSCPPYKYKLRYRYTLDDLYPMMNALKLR
Jarid1A, sequence (P29375 1-1090): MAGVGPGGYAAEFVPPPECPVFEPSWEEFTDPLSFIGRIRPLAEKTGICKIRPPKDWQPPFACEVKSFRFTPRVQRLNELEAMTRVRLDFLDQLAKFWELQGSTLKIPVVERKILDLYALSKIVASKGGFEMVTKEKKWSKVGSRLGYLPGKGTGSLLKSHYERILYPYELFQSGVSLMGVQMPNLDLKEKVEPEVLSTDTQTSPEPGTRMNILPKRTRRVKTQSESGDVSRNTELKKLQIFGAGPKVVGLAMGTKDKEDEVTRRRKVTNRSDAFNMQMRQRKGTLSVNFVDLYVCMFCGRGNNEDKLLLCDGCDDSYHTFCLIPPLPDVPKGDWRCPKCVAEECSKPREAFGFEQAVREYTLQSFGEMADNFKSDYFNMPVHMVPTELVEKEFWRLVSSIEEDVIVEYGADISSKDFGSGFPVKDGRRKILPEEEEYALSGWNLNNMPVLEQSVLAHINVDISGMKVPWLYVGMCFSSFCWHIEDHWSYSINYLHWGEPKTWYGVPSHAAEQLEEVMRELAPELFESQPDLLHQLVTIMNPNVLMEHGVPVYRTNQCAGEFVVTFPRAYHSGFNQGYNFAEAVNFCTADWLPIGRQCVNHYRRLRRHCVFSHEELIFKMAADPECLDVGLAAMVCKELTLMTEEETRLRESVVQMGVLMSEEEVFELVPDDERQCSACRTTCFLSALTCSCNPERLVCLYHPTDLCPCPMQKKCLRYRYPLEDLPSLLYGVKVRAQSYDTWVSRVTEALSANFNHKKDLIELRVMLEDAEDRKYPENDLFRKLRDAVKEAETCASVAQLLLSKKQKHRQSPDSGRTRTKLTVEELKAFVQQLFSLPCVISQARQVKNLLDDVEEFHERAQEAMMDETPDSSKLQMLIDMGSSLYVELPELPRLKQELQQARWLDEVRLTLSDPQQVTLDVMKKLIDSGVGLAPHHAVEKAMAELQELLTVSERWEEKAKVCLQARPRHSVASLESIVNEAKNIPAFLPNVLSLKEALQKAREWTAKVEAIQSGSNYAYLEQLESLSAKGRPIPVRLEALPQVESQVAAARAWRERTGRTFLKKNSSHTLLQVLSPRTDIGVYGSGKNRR

Row | Structure (SMILES) | IC50 (Jarid1A) [nM] | IC50 (Jarid1B) [nM] | IC50 (JMJD2C) [nM]
1 | O=C(O)c1ccnc(-n2nccc2OC2CCc3cc(Cl)ccc32)c1 (stereo not drawn) [Example 147, 2-[5-[(5-chloro-2,3-dihydro-1H-inden-1-yl)oxy]pyrazol-1-yl]pyridine-4-carboxylic acid] | 100 to 1000 | 100 to 1000 | 1000 to 10000
2 | O=C(O)c1ccnc(-n2nccc2OCc2ccccc2F)c1 [Example 59, 2-{5-[(2-fluorobenzyl)oxy]-1H-pyrazol-1-yl}pyridine-4-carboxylic acid] | < 100 | < 100 | < 100
3 | Cc1ccnn1-c1cc(C(=O)O)ccn1 [Example 31, 2-(5-methyl-1H-pyrazol-1-yl)isonicotinic acid] | 1000 to 10000 | 1000 to 10000 | 100 to 1000
4 | COc1cc(-c2ccnn2-c2cc(C(=O)O)ccn2)ccc1Cl [Example 22, 2-(5-(4-chloro-3-methoxyphenyl)-1H-pyrazol-1-yl)isonicotinic acid] | 100 to 1000 | 100 to 1000 | 1000 to 10000
5 | Cc1ccc(COc2ccnn2-c2cc(C(=O)O)ccn2)c(F)c1F [Example 94, 2-[5-[(2,3-difluoro-4-methylphenyl)methoxy]pyrazol-1-yl]pyridine-4-carboxylic acid] | < 100 | < 100 | < 100
6 | CC(Oc1cc(Cl)ccc1COc1ccnn1-c1cc(C(=O)O)ccn1)c1ccccc1 (stereo not drawn) [Example 136, 2-[5-[[4-chloro-2-(1-phenylethoxy)phenyl]methoxy]pyrazol-1-yl]pyridine-4-carboxylic acid] | 100 to 1000 | 100 to 1000 | 1000 to 10000
7 | CCc1cc(C#N)ccc1COc1ccnn1-c1cc(C(=O)O)ccn1 [Example 126, 2-[5-[(4-cyano-2-ethylphenyl)methoxy]pyrazol-1-yl]pyridine-4-carboxylic acid] | < 100 | < 100 | 100 to 1000
8 | Cc1cc(I)ccc1COc1ccnn1-c1cc(C(=O)O)ccn1 [Example 144, 2-[5-[(4-iodo-2-methylphenyl)methoxy]pyrazol-1-yl]pyridine-4-carboxylic acid] | < 100 | < 100 | 100 to 1000
9 | O=C(O)c1ccnc(-n2nccc2OC2CCCc3cc(F)ccc32)c1 (stereo not drawn) [Example 148, 2-[5-[(6-fluoro-1,2,3,4-tetrahydronaphthalen-1-yl)oxy]pyrazol-1-yl]pyridine-4-carboxylic acid] | 100 to 1000 | 100 to 1000 | 1000 to 10000
10 | CCC(C)Oc1cc(Cl)ccc1COc1ccnn1-c1cc(C(=O)O)ccn1 (stereo not drawn) [Example 114, 2-[5-[(2-butan-2-yloxy-4-chlorophenyl)methoxy]pyrazol-1-yl]pyridine-4-carboxylic acid] | 100 to 1000 | 100 to 1000 | 1000 to 10000
11 | O=C(O)c1ccnc(-n2nccc2OCc2cccc3c2OCC3)c1 [Example 123, 2-[5-(2,3-dihydro-1-benzofuran-7-ylmethoxy)pyrazol-1-yl]pyridine-4-carboxylic acid] | < 100 | < 100 | 100 to 1000
12 | O=C(O)c1ccnc(-n2nccc2OCc2ccc(Cl)cc2F)c1 [Example 75, 2-{5-[(4-chloro-2-fluorobenzyl)oxy]-1H-pyrazol-1-yl}pyridine-4-carboxylic acid] | < 100 | < 100 | < 100
13 | O=C(O)c1ccnc(-n2nccc2-c2ccc3cn[nH]c3c2)c1 [Example 24, 2-[5-(1H-indazol-6-yl)-1H-pyrazol-1-yl]pyridine-4-carboxylic acid] | 100 to 1000 | 100 to 1000 | 1000 to 10000
14 | COc1cc(Br)ccc1COc1ccnn1-c1cc(C(=O)O)ccn1 [Example 143, 2-[5-[(4-bromo-2-methoxyphenyl)methoxy]pyrazol-1-yl]pyridine-4-carboxylic acid] | < 100 | < 100 | 100 to 1000
15 | O=C(O)c1ccnc(-n2nccc2OCc2cccnc2)c1 [Example 60, 2-[5-(pyridin-3-ylmethoxy)-1H-pyrazol-1-yl]pyridine-4-carboxylic acid] | < 100 | < 100 | 100 to 1000
